The values that follow come from patent US12139472B2, “Inhibitors of advanced glycation end products” (priority 2019, dated 2024).

The data set has as its system CYP3A. It counts as in vitro ADME, human. The settings on record: HLM. From the text: Compound 5 (PTG-630 free base) and 7 additional compounds for CYP3A P450 inhibition.
Imidazole (and benzimidazole) containing drugs are ubiquitous in pharmacological practice; however, drug-drug interactions (DDI) have been observed with some imidazole-containing classes, such as the antifungal azoles typified by ketoconazole. It is believed that the imidazole moiety accounts for their ability to inhibit CYP3A, the major DDI enzyme that metabolizes up to 50% of common drugs. The compounds of the disclosure incorporate an imidazole moiety attached to a pyridine ring via the imidazole C-2. They all share an imidazo-hydroxypyridine theme that can bind redox metal ions, while differing in the nature of the X side-chain. The potential of the compounds of the disclosure for DDI was evaluated by screening their inhibition of CYP3A.
Two studies were conducted in human liver microsomes (HLM). Lead candidate PTG-630 was tested using the Eurofins G232 panel (Drug Metab Dispos. 2001 January; 29(1):23-9), where inhibition was measured against seven CYP enzymes; CYP3A4 was tested using two different substrates, midazolam and testosterone. In a second study, inhibition of CYP3A4 (midazolam substrate only) was compared for 8 compounds of interest. The test protocol involved one-point measurements in duplicate, where inhibition was measured at a fixed 10 μM concentration of candidate inhibitors. In all cases, the substrate for each CYP enzyme was at a concentration equal to its specific Km value that was independently obtained from an 8-point dose-response study. Based on the observed value for percent inhibition for each test compound, we calculated of an IC50 assuming a competitive mode of inhibition. If percent inhibition for an inhibitor at a concentration of [I] is denoted by P, then: IC50=[I]*(100−P)/P In the single-point assay, [I] is 10 μM. If measured inhibition is 10%, then IC50=10*(100-10)/10=90 μM. […] As discussed in Lin et al. (J Pharm Sci. 2007 September; 96(9):2485-93; doi: 10.1002/jps.20884), CYP inhibition is broadly interpreted as being “potent” if IC50<1 μM, “moderate” if 1 μM<IC50<10 μM, and “weak” if IC50>10 μM.

With `Cc1ncc(CN2CCCCCC2)c(-c2ncc[nH]2)c1O` [PTG-670], the “Estimated IC50” value (midazolam, from one-point % inhibition at 10 μM, IC50=[I]*(100−P)/P) is listed as “— None”. The P % inhib (substrate midazolam at Km, Inhib Conc. 1.0E−05 M) is −1.1%.
